Patent publication US20240279263A1, “NOVEL SEA ALGAE-DERIVED ALKYL-AGARBIOSIDE, PREPARATION METHOD THEREFOR, OR USE THEREOF” (KOREA UNIVERSITY RESEARCH AND BUSINESS FOUNDATION, priority 2021, published 2024)

Tests used:
HAS2 [1] = conditions: Korean Registered Patent No. 10-1525298; cited from earlier work
HaCaT cells = assay: MTT cytotoxicity test in HaCaT keratinocytes; type: cell-based, human; conditions: for Cytotoxicity: HaCaT cells, AB below 100 µg/mL
Method: Cytotoxicity tests were performed using the MTT(3-4,5-dimethylthiazol-2yl)-2,5-diphenyl-2H-tetrazolium bromide) assay. HaCaT cells were cultured in an animal cell incubator at 37° C. and 5% CO2 in a laboratory using Dulbecco's Modified Eagle Medium (DMEM) containing 10% (v/v) FBS, 100 U/mL penicillin, and 100 µg/mL streptomycin as antibiotics. The produced AB was dissolved in DMSO and added to the culture medium at […], and cells were cultured in the medium for 24 hours. The cells were treated with an MTT solution (5 mg/mL) and cultured for another 4 hours, and then an amount of the produced formazan as a blue crystal, was measured by measuring absorbance at 595 nm using an ELISA reader. Toxicity to cells was expressed as a percentage of the average absorbance value of each control group. To investigate the cytotoxicity of AB in HaCaT keratinocytes, when AB was treated at a concentration of […], the degree of change in cell proliferation was calculated compared to control groups treated with only DMSO. The results of Example 1 are shown in A of FIG. 1.
B of FIG. 1 illustrates the presence or absence of a cytotoxic effect when HaCaT keratinocytes are treated with AB according to an example of the present invention. Cell viability was measured to be 100% or more at 100 µg/mL AB.

[2] = Temperature stability (denaturation/decomposition over time); type: physicochemical; conditions: for Time for which stability was maintained at 4° C. / Time for which stability was maintained at 30° C.: HPLC
Method: The temperature stability of agarobiose was tested. The experimental method measured the denaturation/decomposition degrees of AB and ethyl-agarobioside over time at 4° C., 30° C., and 45° C. […] AB and ethyl-agarobioside were quantified using HPLC.

[3] = pH stability (degree of denaturation over time at 25° C.); type: physicochemical; conditions: for Stability over time at pH 3: pH 3 (20 mM citrate); for Stability over time at pH 7: pH 7 (20 mM Tris-HCl)
Method: The pH stability of AB was assessed (C of FIG. 1). For a pH stability experiment, the degree of denaturation in each sample (AB) over time was measured at 25° C. under conditions of pH 3 (20 mM citrate), pH 7 (20 mM Tris-HCl), and pH 9 (20 mM Tris-HCl). […] Since the buffer and AB peaks were not separated at pH 3 using HPLC, AB was quantified through GC/MS analysis. The derivatization process for GC/MS analysis is as follows. After drying a purified sample with a speed vac, 10 μL of 40 mg/mL O-methylhydroxylamine hydrochloride in pyridine was added and reacted at 30° ° C. and 200 rpm for 90 minutes. Then, 45 μL of N-methyl-N-(trimethylsilyl)trifluoroacetamide was added and reacted at 37° C. and 200 rpm for 30 minutes. Instrument conditions for GC/MS analysis are as follows. A DB5-MS capillary column was used in the analysis, and the GC column temperature condition was maintained at 50° C. for 1 minute and then raised to 280° C. and maintained for 5 minutes. 1 μL of sample was analyzed in a splitless mode. Each concentration of […] at pH 7 and pH 9 was analyzed using HPLC. HPX-87H was used as a column, and the sample was analyzed at a column temperature of 65° C. and a flow rate of 0.5 mL/min. 0.005 M sulfuric acid was used as a mobile phase.

HAS2 [4] = assay: HAS2 expression in HaCaT cells by Western blot (moisturizing effect); type: cell-based, human; conditions: for HAS2 expression compared to L-AHG: same concentration (100 μg/mL, FIG. 7)
Source text: Hyaluronan (HA) is a glycosaminoglycan composed of D-glucuronic acid and N-acetyl-D-glucosamine. Due to its ability to retain large amounts of water, HA plays an important role in regulating hydration and osmotic pressure. […] is synthesized in cell membranes by HAS1, HAS2, and HAS3, and HAS2 in particular appears in human normal tissues. […] Therefore, increasing HAS2 expression may be a great strategy to maintain skin homeostasis. To determine the AB induction time and AB concentration for HAS2 expression, Western blot analysis was performed. Cells used for the analysis were HaCaT cells, which were cultured at 37° C. in a 5% CO2 atmosphere using DMEM with 10% FBS and penicillin/streptomycin. Cells (1×10^5) were cultured in 6-cm dishes for 24 hours and then starved in serum-free medium for another 24 hours to remove the FBS effect on the activation of the kinase. Then, AB was treated at a certain time and concentration. Cells were lysed with a lysis buffer [20 mM Tris-HCl (pH 7.5), 150 mM NaCl, 1 mM Na2EDTA, 1 mM EGTA, 1% Triton X-100, 2.5 mM sodium pyrophosphate, 1 mM β-glycerophosphate, 1 mM Na3VO4, […] leupeptin, 1 mM phenylmethylsulfonyl fluoride (PMSF), and a protease inhibitor cocktail tablet]. The protein concentration was measured using a dye-conjugated protein assay kit (Bio-Rad Laboratories Inc.) according to the manufacturer's instructions. Dissolved proteins (20-40 μg) were subjected to 10% SDS-PAGE and transferred to a polyvinylidene fluoride (PVDF) membrane by electrophoresis (Millipore Corp., Bedford, MA, USA). After blotting, the membrane was blocked with 5% skim milk for 2 hours and incubated overnight at 4° C. with a primary antibody […]. Subsequently, the membrane was incubated with a secondary antibody (goat anti-rabbit IgG HRP-conjugated secondary antibody), and the protein bound to the antibody was detected using a chemiluminescence detection kit (Amersham Pharmacia Biotech, Piscataway, NJ). Representative values of two independent experiments were used as data. […] The moisturizing activity of AB was confirmed from the result.

Time to complete denaturation / decomposition at pH 9 ([3]; pH 9 (20 mM Tris-HCl)) | SMILES | Moisturizing activity in HaCaT cells (previous study) (HAS2 [1]) | Cytotoxicity (HaCaT cells) | Stability at 45° C. [2] | Time for which stability was maintained at 4° C. [2] | Time for which stability was maintained at 30° C. [2] | Conversion product at 45° C. ([2]; 45° C., HPLC analysis of reactant components) | Stability over time at pH 3 [3] | Stability over time at pH 7 [3] | Stability over time at pH 9 ([3]; pH 9 (20 mM Tris-HCl)) | HAS2 expression compared to L-AHG (HAS2 [4]) | Moisturizing activity (HAS2 expression level) (HAS2 [4]; same manner as Example 1) | Cell viability (HaCaT cells; HaCaT keratinocytes, 24 hours, 100 µg/mL AB, vs DMSO control) | HAS2 expression, concentration dependence (HAS2 [4]; Western blot) | HAS2 expression (HAS2 [4]; Western blot, 3 hours after treatment)
 | O=C[C@@H](O)[C@@H]1OC[C@H](O)[C@H]1O [L-AHG, 3,6-anhydro-L-galactose] | has moisturizing activity |  |  |  |  |  |  |  |  |  |  |  |  | 
 | CCOC1O[C@H]2CO[C@H]([C@@H]2O[C@@H]2O[C@H](CO)[C@H](O)[C@H](O)[C@H]2O)[C@@H]1O (stereo partly shown) [ethyl-agarobioside] |  | without cytotoxicity | less stable than AB after 6 weeks | 15 weeks | 15 weeks | converted to AB | maintained | maintained | maintained | greatly increased | exhibits moisturizing activity |  |  | 
≤ 6 weeks | OC[C@H]1O[C@@H](O[C@H]2[C@H]3OC[C@@H]2OC(O)[C@H]3O)[C@H](O)[C@@H](O)[C@H]1O (mixture of isomers) [AB, agarobiose] |  | no cytotoxicity | stability slowly decreased | 15 weeks | 15 weeks |  | stable | stable |  | greatly increased |  | ≥ 100% | increased HAS2 expression in a concentration-dependent manner | increased HAS2 expression
